Results on 3 molecules are retold here after patent US20260294933A1, “USE OF COMPOUND IN PREVENTION OR TREATMENT OF RADIATION-INDUCED BRAIN INJURY” (GUANGZHOU CELLPROTEK PHARMACEUTICAL CO., LTD, priority 2023, published 2026).

“Also recorded” adds a separate entry of the source.

One assay concerns MAG. Description: MAG immunofluorescence intensity in the thalamus of the lesion. Format: in vivo, C57BL/6 mice. An excerpt:
(§1) Pannel A: Immunofluorescence staining of CC1 and MAG in the thalamus of the brain lesion, with a white ruler indicating […]. Pannel B: Counting CC1 positive cells in Pannel A, i.e., randomly selecting three fields of view in the brain slice injury lesion area and using Image J software to count CC1 positive cells in the selected fields as the number of CC1 positive cells per unit area, and taking the average value. Pannel C: Statistical analysis of MAG immunofluorescence intensity in Pannel A, i.e., randomly selecting three fields of view in the brain slice injury lesion area and using Image J software to quantify the fluorescence signal intensity of MAG in the selected fields as the fluorescence intensity of MAG per unit pixel area, and taking the average value. **** represents P<0.0001, n=5.
(§2) The coordinates of the irradiation center positioning point were: 2 mm behind the anterior fontanelle (AP), 2 mm left of the midline (L), and 2 mm below the skull dura mater (dorsal ventral DV).
(§3) Immunofluorescence Staining of GFAP, CC1, and MAG Proteins in Brain Slices

The subject of assay [1] is CC1 positive oligodendrocytes. In words: CC1 immunofluorescence staining, mature oligodendrocytes in the thalamus of the lesion. Format: in vivo, C57BL/6 mice.
From the text: as §1, §2, §3

Assay [2] concerns gamma knife irradiation induced focal radiation-induced brain injury (brain lesions). Description: Brain lesion volume by MRI, gamma knife irradiation induced focal radiation-induced brain injury in C57BL/6 mice. The class given is in vivo. How it is done:
as §2
Quantitative Analysis of Brain Lesion Volume Using Magnetic Resonance imaging (MRI)
Prior to detection, each mouse was injected with 200 μl of contrast agent solution at a concentration of approximately 48 mg/ml.

The next assay has as its system GFAP positive astrocytes. Description: GFAP immunofluorescence staining, activation of astrocytes in the thalamus of the lesion. The class given is in vivo, C57BL/6 mice.
From the text: FIG. 3: YC-6 inhibited the activation of astrocytes after radiation-induced brain injury. Pannel A: GFAP immunofluorescence staining in the thalamus of the brain lesion, with a white ruler indicating […]. Pannel B: Counting GFAP positive cells in Pannel A, i.e., randomly selecting three fields of view in the brain slice injury lesion area and using Image J software to count GFAP positive cells in the selected fields as the number of GFAP positive cells per unit area, and taking the average value. **** represents P<0.0001, n=5.
as §2, §3

The subject of assay [3] is radiation-induced brain injury. As to conditions: patients treated with bevacizumab; cited from earlier work.
Assay [4] has as its system blood-brain barrier and microvessels. As to conditions: animals; cited from earlier work.
The mark [5] stands for this setting: YC-6 administration for 8 weeks.

Consider `C[C@@]12CCCC1C1C[C@@H](O)[C@@]3(O)C[C@@H](O)CC[C@]3(C)C1CC2` (stereo partly drawn) [YC-6, 5α-androst-3β,5,6β-triol], for which, in the assay on MAG (60 mg/kg/d for 8 weeks, 8 weeks after gamma knife radiation, Mean ± SEM, n=5, P < 0.0001 vs RBI + Saline (0.31 ± 0.018), Control + Saline 1.04 ± 0.047), the “MAG fluorescence signal intensity” value worked out at 0.44 ± 0.018. The “MAG level (in words)” value in the assay on MAG (setting [5]) was “restored MAG level”. For the same molecule, in assay [1] (60 mg/kg/d for 8 weeks, 8 weeks after gamma knife radiation, Mean ± SEM, n=5, P < 0.0001 vs RBI + Saline (200.60 ± 21.47), Control + Saline 1608.00 ± 47.92), the “Number of mature oligodendrocytes (CC1 positive)” value is reported as 506.40 ± 30.48 Oligodendrocytes/mm^2. Moreover, the “reduction of oligodendrocytes (in words)” value in assay [1] (setting [5]) is “significantly inhibited the reduction of oligodendrocytes”. Further, the “volume of brain lesions (in words)” value in assay [2] (60 mg/kg/d for 2 weeks, followed by discontinuation until week 8) is on record as “significantly reduced the volume of brain lesions; also recorded: significantly reducing lesion volume”; in assay [2] (full 8-week administration, compared to 2-week administration) it was “showed a trend towards further reducing the volume of brain lesions; also recorded: showed a better trend in reducing lesion volume compared to short-term administration”. In the assay on GFAP positive astrocytes (60 mg/kg/d for 8 weeks, 8 weeks after gamma knife radiation, Mean ± SEM, n=5, P < 0.0001 vs RBI + Saline (558.20 ± 10.07), Control + Saline 57.80 ± 2.69), the “Number of astrocytes (GFAP positive)” value was found to be 357.00 ± 10.61 Astrocytes/mm^2. Moreover, in the assay with GFAP positive astrocytes (setting [5]), the “activation of astrocytes (in words)” value is on record as “significantly inhibited the activation of astrocytes”.

Turning to “bevacizumab: bevacizumab, used in a randomized double-blind placebo-controlled study in 2011”, in assay [3], the neurological function result is listed as “significant improvement in neurological function” and the “reduction in brain injury lesions” value is listed as “varying degrees of reduction in brain injury lesions”.

B1: mouse nerve growth factor for injection: mouse nerve growth factor for injection (protein, UniProt P01139 122-241, looked up)
Beta-nerve growth factor: SSTHPVFHMGEFSVCDSVSVWVGDKTTATDIKGKEVTVLAEVNINNSVFRQYFFETKCRASNPVESGCRGIDSKHWNSYCTTTHTFVKALTTDEKQAAWRFIRIDTACVCVLSRKATRRG
Take B1: in assay [4], the “damage to the blood-brain barrier and repair of microvessels” value was “can alleviate damage to the blood-brain barrier and repair microvessels in animals”.
